According to US9359322B2, “C-linked glucuronide of N-(4-hydroxybenzyl) retinone, analogs thereof, and methods of using the same to inhibit neoplastic cell growth” (Wisconsin Alumni Research Foundation, priority 2005, dated 2016):
Marks after values point to notes of the source that are not given here.

Key:
[1] = Plasma triglyceride measurement; assay type: in vivo, rat; conditions: 2 mmol/kg diet, 22 days; FIG. 2A
Experimental: Plasma Triglyceride Measurement. Bloods were drawn from anesthetized animals in the presence of EDTA as an anticoagulant, and the resulting plasma was used for the measurement of plasma “true” triglyceride levels using a kit from Sigma-Aldrich (Saint Louis, Mo.). Briefly, the total plasma triglyceride and glycerol concentrations were determined, and the glycerol component was subtracted from the total plasma triglyceride measurement to obtain the “true” serum triglyceride concentration.

[2] = tested on: MCF-7 human breast cancer cells; assay: Growth inhibition of MCF-7 human breast cancer cells; assay type: cell-based; conditions: 10^−5 M, 8-day period; FIG. 5
Experimental: Inhibition of MCF-7 human breast cancer cell growth over an 8-day period was used as a means to assess the activity of 4-HBRCG and the analog 4-HBRCGlucose.
Growth inhibition of MCF-7 human breast cancer cells. MCF-7 cells were obtained from the American Type Culture Collection, Manassas, Va. They were maintained in DMEM medium supplemented with 4 g/L glucose, 3.7 g/L sodium bicarbonate and 10% heat-inactivated fetal calf serum. Cells were passaged into 12-well plates, cultured for 24 hours, after which time they were dosed with vehicle (0.2% ethanol) or retinoids; medium was changed and fresh vehicle or retinoids were added daily. Cells were harvested and the number of live cells was assessed using fluorescein diacetate, which yields a fluorescent product upon cleavage by metabolically active cells. Using fluorescent microscopy, at least 200 cells/well were counted with a hemacytometer.

CYP26A1 mRNA = assay: Induction of CYP26A1 mRNA in liver (Q-PCR); assay type: in vivo, rat; conditions: at sacrifice, retinoid-fed rats, 2 mmol/kg diet; FIG. 4
RXRγ = biological target: T1, RXRγ (Homo sapiens, UniProt P48443); assay: Nuclear retinoid receptor binding assay, competition with [3H]9-cis RA; conditions: 4-HBRCG up to 10^−4.5 M; data not shown
T1 sequence (P48443 1-463): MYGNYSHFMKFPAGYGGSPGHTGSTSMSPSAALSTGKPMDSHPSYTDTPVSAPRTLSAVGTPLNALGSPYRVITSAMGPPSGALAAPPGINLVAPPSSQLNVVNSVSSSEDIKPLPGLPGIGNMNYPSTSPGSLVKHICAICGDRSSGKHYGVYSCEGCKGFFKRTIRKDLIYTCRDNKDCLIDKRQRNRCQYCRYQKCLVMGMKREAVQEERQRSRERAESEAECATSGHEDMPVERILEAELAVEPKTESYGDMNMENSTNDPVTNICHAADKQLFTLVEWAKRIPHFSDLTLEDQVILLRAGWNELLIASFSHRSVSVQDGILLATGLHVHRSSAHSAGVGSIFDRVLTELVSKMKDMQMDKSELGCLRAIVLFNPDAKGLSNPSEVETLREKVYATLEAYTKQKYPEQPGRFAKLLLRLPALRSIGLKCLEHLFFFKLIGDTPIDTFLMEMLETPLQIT
Experimental: Nuclear Retinoid Receptor Binding Assay. Competition of 3 and 7 and 4-HBRCGlucose with [^3H]-all-trans-RA (4.2-4.6 nM) for binding to RARβ and RARγ and with [^3H]-9-cis RA (1.9 nM) for binding to RXRγ was determined using an in vitro ligand binding assay.^41, 42 [^3H]-all-trans-RA (40.5 Ci/mmole) or [^3H]-9-cis-RA (69.4 Ci/mmole) was added to receptor-containing extracts in the absence and presence of increasing concentrations of competing ligands at 4° C. for 3 hr. A hydroxylapatite (HAP) assay was used to separate ligand bound to receptor from that free in solution, and the radioactivity associated with the HAP pellet was measured by scintillation counting.

[3] = tested on: DMBA-induced rat mammary tumor; assay: DMBA-induced rat mammary tumor model, retinoid-containing diets; assay type: in vivo
Experimental: Preliminary evaluation of the mammary tumor chemotherapeutic activity of 4-HBRCG (7) was conducted, and its toxicity profile was also assessed. As previously described,^7, 12 tumor-bearing female rats (treated ca. 50 days earlier with 7,12-dimethylbenz(a)anthracene [DMBA]) were fed the control or retinoid-containing diets (RA (2), 4-HPR (3) or 4-HBRCG (7)) at 2 mmole/kg diet for 22 days.
Animal Studies: Mammary tumors were induced by intragastric intubation of 50-day old female Sprague-Dawley rats (Harlan Industries, Indianapolis, Ind.) with a single dose of 15 mg DMBA in 1.0 ml of sesame oil per rat. The rats were then maintained on a powdered Teklad 22/5 rodent chow diet (W) 8640 (Harlan Industries, Indianapolis, Ind.), and allowed food and water ad libitum. Four months later, rats which had developed palpable tumors were randomly assigned to the experimental groups (4 rats/group). The retinoid-treated groups were fed diets supplemented with 2 mmol/kg diet of atRA, 4-HPR, or 4-HBRCG, respectively. The retinoids were added to the diet in a vehicle consisting of 25 ml of ethanol: tricaprylin (1:4 v/v) plus 2% (w/v) of α-tocopherol as previously described.^9 This vehicle was also added to the control diet. The additives were blended into the chow diets using a Hobart food mixer. The diets were fed in stainless steel feeders designed with food hoppers. The food was replaced weekly with freshly prepared diets. Food consumption was determined once weekly, and from that the average daily consumption/rat was estimated. These diets were continuously fed for 22 days. Animals were also weighted weekly and monitored for general health status and signs of possible toxicity due to treatment.
Baseline measurement of initial tumor sizes, numbers and rat body weights were determined immediately before commencement of treatments, and final measurements were recorded just prior to sacrifice of the animals. Animals were palpated for tumors twice weekly and tumor diameters were measured weekly by a micrometer caliper. Tumor volumes were calculated using the formula [V= 4/3 πr^3] where r is one-half the mean of the sum of the largest diameter and the axis at right angle to it. All tumors as well as lungs, liver, kidney and femur were excised at the end of the experiment for chemical and histopathological evaluation. Blood samples were also taken from each animal for determination of plasma retinol and triglyceride levels.

[4] = number of individual tumors, 2 mmol/kg diet, 22 days

In the case of CC1=C(/C=C/C(C)=C/C=C/C(C)=C/C(=O)Cc2ccc(CC3OC(C(=O)O)C(O)C(O)C3O)cc2)C(C)(C)CCC1 [4-HBRCG (7), 2,6-Anhydro-7-deoxy-7-[4-(retinoylmethyl)-phenyl]-L-glycero-L-gulo-heptinoic acid], the “Effect on serum triglyceride concentration” value [1] is reported as “did not cause this undesirable effect”, the “Effect on number of live MCF-7 cells” value [2] is reported as “reduction in the number of live cells” and the “Induction of CYP26A1 mRNA in liver” value (CYP26A1 mRNA) is reported as “did not induce these cytochrome p450 mRNAs”. For the same molecule, the “Competition for [3H]9-cis RA binding to RXR” value (RXRγ) was “almost no competition”, the “% Change in tumor volume from baseline” value ([3]; 2 mmol/kg diet for 22 days) was −33 ^d % and the Final tumor volume ([3]; 2 mmol/kg diet for 22 days, mean ± SEM) was 0.08 ± 0.05 cm^3. For the same molecule, the Initial tumor volumes ([3]; baseline before treatment, mean ± SEM) was 0.12 ± 0.06 cm^3, the “Complete regression (tumors that totally disappeared)” value [3, 4] was 2 and the No effect [3, 4] was 2. The “Partial regression (tumors with 25-75% decrease in volume)” value [3, 4] was 6 and the New tumors ([3]; number of tumors, 2 mmol/kg diet, 22 days) was 0.
